Assay results from patent US20040192759A1, “Use of nefiracetam for treating neurodegeneration” (priority 2004, published 2004).
“Also recorded” adds a separate entry of the source.

Tests used:
post-stroke patients = experiment: controlled clinical trial against placebo in post-stroke patients, improvement rating by duration from stroke; format: in vivo, human
Description: The activity of nefiracetam to improve ADL in post-stroke patients has been discovered during a controlled clinical trial against placebo. The compound has been administered orally (450 mg/day, three times daily) to 32 post-stroke patients within six months after the event whilst, concurrently, 27 patients received placebo. The two groups of patients were followed during at least 8 weeks and followed up at the end of week 4 and at the end of week 8 on a symptom scale measuring Activities of Daily Living. […] Among the above 59 patients, 19 received nefiracetam and 10 received placebo within three months after stroke. […] The difference was significant (p=0.035, χ^2 test).
Further, the action of nefiracetam on the patient who had been treated with nefiracetam early after stroke or later was evaluated.

[1] = test system: rats with cerebral embolism; experiment: spatial learning and retention (watermaze) of rats with cerebral embolism; format: in vivo, male Wistar rats
Description: This assumption is confirmed by the effect of nefiracetam on spatial learning and retention in rats with cerebral embolism, treated for 9 days with nefiracetam or vehicle, starting within 24 hours of embolization.
In male Wistar rats weighing 190-220 g a total of 700 microspheres (48 μm in diameter) were injected into the right common carotid artery of each animal, whereby a quasi-immediate embolism occurs. The embolized animals were randomly divided into 2 groups, each of 13 animals with same neurological deficit, designated as “Control” (embolism plus Vehicle), or “Nefiracetam” (embolism plus nefiracetam 10 mg/kg/day). In addition, a group of 13 “Normal (Sham)” non-embolized animals were used. The administration of nefiracetam or of its vehicle started within the same day of embolization and treatment lasted 9 days. Seven days after embolization, the embolized rats were submitted to a watermaze test, said watermaze being adapted from the Morris water task. The time taken to find the platform (latency) was determined. […] The experiment was carried out in two different sessions. In the first session, at the seventh day embolized rats were submitted to the spatial learning test performed three trials per day for three days (from day 7 to day 9). In the second session, one week after the last day of spatial learning test […], a retention test was performed whereby each rat was given three consecutive trials to learn and remember the location of the platform.

stroke patients = settings: Hirata et al.; cited from earlier work
[2] = test system: cortical rat embrio neurons; experiment: neurite outgrowth in primary cultures of cortical neurons; format: cell-based; settings: 0.1, 1, 10 and 100 micromoles/l
[3] = test system: hippocampal rat embrio neurons; experiment: neurite outgrowth in primary cultures of hippocampal neurons; format: cell-based
[4] = test system: patients after a stroke (cerebral infarction or cerebral hemorrhage); settings: Ohtomo et al., global results; cited from earlier work
[5] = Overall (all durations from stroke)
[6] = duration from stroke <12 months
[7] = duration from stroke ≧12 months

Cc1cccc(C)c1NC(=O)CN1CCCC1=O [nefiracetam, N-(2,6-dimethylphenyl)-2-(2-oxo-1-pyrrolidinyl)acetamide]
improvement on symptom scale measuring Activities of Daily Living (in words) (post-stroke patients; 450 mg/day orally, within six months after stroke, 32 patients, weeks 4 and 8): moderate or remarkable improvement
Emotional Disturbance, Improvement Rate (Percent Patients Remarkably or Moderately Improved) (post-stroke patients; [5]): Overall 22.6%
Global Improvement Rating, Improvement Rate (Percent Patients Remarkably or Moderately Improved) (post-stroke patients; [5]): Overall 32.3%
Intellectual Dysfunction, Improvement Rate (Percent Patients Remarkably or Moderately Improved) (post-stroke patients; [5]): Overall 11.9%
Psychiatric Symptoms, Improvement Rate (Percent Patients Remarkably or Moderately Improved) (post-stroke patients; [5]): Overall 30.8%
Reduced Spontaneity, Improvement Rate (Percent Patients Remarkably or Moderately Improved) (post-stroke patients; [5]): Overall 23.4%
ADL Improvement, Improvement Rate (Percent Patients Remarkably or Moderately Improved) (post-stroke patients; duration from stroke <3 months): 41.7%
ADL Improvement, Improvement Rate (patients improved/patients) (post-stroke patients; duration from stroke <3 months): 5/12
Emotional Disturbance, Improvement Rate (Percent Patients Remarkably or Moderately Improved) (post-stroke patients; duration from stroke <3 months): 70.6%
Emotional Disturbance, Improvement Rate (patients improved/patients) (post-stroke patients; duration from stroke <3 months): 12/17
Global Improvement Rating, Improvement Rate (Percent Patients Remarkably or Moderately Improved) (post-stroke patients; duration from stroke <3 months): 68.4%
Global Improvement Rating, Improvement Rate (patients improved/patients) (post-stroke patients; duration from stroke <3 months): 13/19
Intellectual Dysfunction, Improvement Rate (Percent Patients Remarkably or Moderately Improved) (post-stroke patients; duration from stroke <3 months): 43.8%
Intellectual Dysfunction, Improvement Rate (patients improved/patients) (post-stroke patients; duration from stroke <3 months): 7/16
Psychiatric Symptoms, Improvement Rate (Percent Patients Remarkably or Moderately Improved) (post-stroke patients; duration from stroke <3 months): 68.4%
Psychiatric Symptoms, Improvement Rate (patients improved/patients) (post-stroke patients; duration from stroke <3 months): 13/19
Reduced Spontaneity, Improvement Rate (Percent Patients Remarkably or Moderately Improved) (post-stroke patients; duration from stroke <3 months): 61.1%
Reduced Spontaneity, Improvement Rate (patients improved/patients) (post-stroke patients; duration from stroke <3 months): 11/18
ADL Improvement, Improvement Rate (Percent Patients Remarkably or Moderately Improved) (post-stroke patients; duration from stroke <6 months): 21.7%
ADL Improvement, Improvement Rate (patients improved/patients) (post-stroke patients; duration from stroke <6 months): 5/23
Emotional Disturbance, Improvement Rate (Percent Patients Remarkably or Moderately Improved) (post-stroke patients; duration from stroke <6 months): 48.3%
Emotional Disturbance, Improvement Rate (patients improved/patients) (post-stroke patients; duration from stroke <6 months): 14/29
Global Improvement Rating, Improvement Rate (Percent Patients Remarkably or Moderately Improved) (post-stroke patients; duration from stroke <6 months): 50.0%
Global Improvement Rating, Improvement Rate (patients improved/patients) (post-stroke patients; duration from stroke <6 months): 16/32
Intellectual Dysfunction, Improvement Rate (Percent Patients Remarkably or Moderately Improved) (post-stroke patients; duration from stroke <6 months): 29.6%
Intellectual Dysfunction, Improvement Rate (patients improved/patients) (post-stroke patients; duration from stroke <6 months): 8/27
Psychiatric Symptoms, Improvement Rate (Percent Patients Remarkably or Moderately Improved) (post-stroke patients; duration from stroke <6 months): 50.0%
Psychiatric Symptoms, Improvement Rate (patients improved/patients) (post-stroke patients; duration from stroke <6 months): 16/32
Reduced Spontaneity, Improvement Rate (Percent Patients Remarkably or Moderately Improved) (post-stroke patients; duration from stroke <6 months): 46.7%
Reduced Spontaneity, Improvement Rate (patients improved/patients) (post-stroke patients; duration from stroke <6 months): 14/30
ADL Improvement, Improvement Rate (Percent Patients Remarkably or Moderately Improved) (post-stroke patients; [6]): 14.3%
ADL Improvement, Improvement Rate (patients improved/patients) (post-stroke patients; [6]): 5/35
Emotional Disturbance, Improvement Rate (Percent Patients Remarkably or Moderately Improved) (post-stroke patients; [6]): 48.8%
Emotional Disturbance, Improvement Rate (patients improved/patients) (post-stroke patients; [6]): 21/43
Global Improvement Rating, Improvement Rate (Percent Patients Remarkably or Moderately Improved) (post-stroke patients; [6]): 50.0%
Global Improvement Rating, Improvement Rate (patients improved/patients) (post-stroke patients; [6]): 24/48
Intellectual Dysfunction, Improvement Rate (Percent Patients Remarkably or Moderately Improved) (post-stroke patients; [6]): 23.1%
Intellectual Dysfunction, Improvement Rate (patients improved/patients) (post-stroke patients; [6]): 9/39
Psychiatric Symptoms, Improvement Rate (Percent Patients Remarkably or Moderately Improved) (post-stroke patients; [6]): 50.0%
Psychiatric Symptoms, Improvement Rate (patients improved/patients) (post-stroke patients; [6]): 24/48
Reduced Spontaneity, Improvement Rate (Percent Patients Remarkably or Moderately Improved) (post-stroke patients; [6]): 46.7%
Reduced Spontaneity, Improvement Rate (patients improved/patients) (post-stroke patients; [6]): 21/45
ADL Improvement, Improvement Rate (Percent Patients Remarkably or Moderately Improved) (post-stroke patients; duration from stroke ≧3 months): 1.2%
ADL Improvement, Improvement Rate (patients improved/patients) (post-stroke patients; duration from stroke ≧3 months): 1/81
ADL Improvement, Improvement Rate (Percent Patients Remarkably or Moderately Improved) (post-stroke patients; duration from stroke ≧6 months): 1.4%
ADL Improvement, Improvement Rate (patients improved/patients) (post-stroke patients; duration from stroke ≧6 months): 1/70
Emotional Disturbance, Improvement Rate (Percent Patients Remarkably or Moderately Improved) (post-stroke patients; duration from stroke ≧6 months): 14.7%
Emotional Disturbance, Improvement Rate (patients improved/patients) (post-stroke patients; duration from stroke ≧6 months): 14/95
Global Improvement Rating, Improvement Rate (Percent Patients Remarkably or Moderately Improved) (post-stroke patients; duration from stroke ≧6 months): 26.5%
Global Improvement Rating, Improvement Rate (patients improved/patients) (post-stroke patients; duration from stroke ≧6 months): 26/98
Intellectual Dysfunction, Improvement Rate (Percent Patients Remarkably or Moderately Improved) (post-stroke patients; duration from stroke ≧6 months): 6.1%
Intellectual Dysfunction, Improvement Rate (patients improved/patients) (post-stroke patients; duration from stroke ≧6 months): 5/82
Psychiatric Symptoms, Improvement Rate (Percent Patients Remarkably or Moderately Improved) (post-stroke patients; duration from stroke ≧6 months): 24.5%
Psychiatric Symptoms, Improvement Rate (patients improved/patients) (post-stroke patients; duration from stroke ≧6 months): 24/98
Reduced Spontaneity, Improvement Rate (Percent Patients Remarkably or Moderately Improved) (post-stroke patients; duration from stroke ≧6 months): 16.0%
Reduced Spontaneity, Improvement Rate (patients improved/patients) (post-stroke patients; duration from stroke ≧6 months): 15/94
ADL Improvement, Improvement Rate (Percent Patients Remarkably or Moderately Improved) (post-stroke patients; [7]): 1.7%
ADL Improvement, Improvement Rate (patients improved/patients) (post-stroke patients; [7]): 1/58
Emotional Disturbance, Improvement Rate (Percent Patients Remarkably or Moderately Improved) (post-stroke patients; [7]): 8.6%
Emotional Disturbance, Improvement Rate (patients improved/patients) (post-stroke patients; [7]): 7/81
Global Improvement Rating, Improvement Rate (Percent Patients Remarkably or Moderately Improved) (post-stroke patients; [7]): 22.0%
Global Improvement Rating, Improvement Rate (patients improved/patients) (post-stroke patients; [7]): 18/82
Intellectual Dysfunction, Improvement Rate (Percent Patients Remarkably or Moderately Improved) (post-stroke patients; [7]): 5.7%
Intellectual Dysfunction, Improvement Rate (patients improved/patients) (post-stroke patients; [7]): 4/70
Psychiatric Symptoms, Improvement Rate (Percent Patients Remarkably or Moderately Improved) (post-stroke patients; [7]): 19.5%
Psychiatric Symptoms, Improvement Rate (patients improved/patients) (post-stroke patients; [7]): 16/82
Reduced Spontaneity, Improvement Rate (Percent Patients Remarkably or Moderately Improved) (post-stroke patients; [7]): 10.1%
Reduced Spontaneity, Improvement Rate (patients improved/patients) (post-stroke patients; [7]): 8/79
incontinence of urines (post-stroke patients; early treatment after stroke): tends to improve
neurological signs (post-stroke patients; early treatment after stroke): tends to improve
Number of rats which failed to find the platform within 180 Sec., Spatial learning test ([1]; Day 7, 10 mg/kg/day, of 13 rats): 8
Latency to reach the platform, Spatial learning test ([1]; Day 7 after embolization, 10 mg/kg/day for 9 days, n 13): 147.6 ± 14.1 s
Number of rats which failed to find the platform within 180 Sec., Spatial learning test ([1]; Day 8, 10 mg/kg/day, of 13 rats): 2
Latency to reach the platform, Spatial learning test ([1]; Day 8 after embolization, 10 mg/kg/day for 9 days, n 13): 83.7 ± 17.4 s
Number of rats which failed to find the platform within 180 Sec., Spatial learning test ([1]; Day 9, 10 mg/kg/day, of 13 rats): 2
Latency to reach the platform, Spatial learning test ([1]; Day 9 after embolization, 10 mg/kg/day for 9 days, n 13): 93.1 ± 16.2 s
Number of rats which failed to find the platform within 180 Sec., Retention test ([1]; Day 17, 10 mg/kg/day, of 13 rats): 2
Latency to reach the platform, Retention test ([1]; Day 17 after embolization (after washout), 10 mg/kg/day for 9 days, n 13): 72.2 ± 17.0 s
effect in retention test vs vehicle (in words) ([1]; day 17 after embolization, after washout): maintained even after washout; also recorded: remakable difference
learning ability in place-learning watermaze task vs vehicle (in words) ([1]; days 7 to 9 after embolization): clear difference between nefiracetam and vehicle-treated animals
improvement of mental function tests (stroke patients): not significant
neurotrophic effect (neurite outgrowth) [2]: significantly increasing neurite outgrowth
neurotrophic effect (neurite outgrowth) ([3]; 0.1, 1, 10 and 100 micromoles/l): significantly increasing neurite outgrowth
neurite outgrowth effect in combination with bFGF ([3]; with bFGF): potentiated by bFGF
activities of daily living, nefiracetam vs placebo [4]: no significant difference between the two groups
psychiatric symptoms [4]: improves the psychiatric symptoms
